Test system: methanogens
Assay: Methanogen propagation upon fumarate treatment of rice (qPCR methanogen determination)
Conditions: SUSIBA2 rice and Nipponbare rice treated with fumarate for two weeks (from Week 6 to Week 8), groups Mst, MET, Msc, MBT, MMB, Arc
Method: FIG. 12. Response of methanogen propagation of different groups upon fumarate treatment for two weeks (from Week 6 to Week 8). Mst (Methanosaetaceae), MET (methanogens), Msc (Methanosarcinaceae), MBT (Methanobacteriales), MMB (Methanomicrobiales), Arc (archaea), and Met for Methanocella-specific.
Quantitative PCR was performed for both methanogen determination and rice gene expression in the same way as described in Su et al. (2015).
CRISPR/Cas technology was used to successfully delete the yin transcription factor (sucrose-response region) in the yin-yang system (Jin et al. (2017)) in rice to achieve larger panicles (FIG. 11). The increased panicle size meant that more carbon was reallocated to the panicles, which in turn led to less carbon to fumarate section from roots below ground.

For `O=C(O)/C=C/C(=O)O` [fumarate], which “Response of methanogen propagation of different groups upon fumarate treatment” value is on record?
Its value is “all methanogen groups propagated”.

Reference: patent publication US20220177902A1, “LOW-METHANE RICE” (priority 2019, published 2022)
